Tested on: NCI-H23 complex spheroids with HUVEC/MSC, viability
Test: Anticancer human tumor NCI-H23 cell line growth inhibition [RAS];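 further: spheroids exposed to compound for 7 days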;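 on viability, T/C: 100% = DMSO vehicle control viability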
Settings: for IC50: curve of first compound; for viability, T/C: stronger effect = lower value; active means viability on the fitted dose curve at most 10% of control; inactive means the rest
Method in brief: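 Tumour cells grown as complex spheroids with HUVEC endothelial cells and mesenchymal stem cells, treated with RAS pathway inhibitor combinations. Each agent spans half-log steps from near clinical Cmax, or 10 microM where Cmax is unknown.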

[1] = second compound 0.00316 µM, first compound 0.0316 µM
[2] = second compound 0.00316 µM, first compound 0.1 µM
[3] = second compound 0.00316 µM, first compound 0.316 µM
[4] = second compound 0.00316 µM, first compound 1 µM
[5] = second compound 0.00316 µM, first compound 3.16 µM
[6] = second compound 0.00316 µM, first compound 10 µM
[7] = second compound 0.01 µM, first compound 0.0316 µM
[8] = second compound 0.01 µM, first compound 0.1 µM
[9] = second compound 0.01 µM, first compound 0.316 µM
[10] = second compound 0.01 µM, first compound 1 µM
[11] = second compound 0.01 µM, first compound 3.16 µM
[12] = second compound 0.01 µM, first compound 10 µM
[13] = second compound 0.0316 µM, first compound 0.0316 µM
[14] = second compound 0.0316 µM, first compound 0.1 µM
[15] = second compound 0.0316 µM, first compound 0.316 µM
[16] = second compound 0.0316 µM, first compound 1 µM
[17] = second compound 0.0316 µM, first compound 3.16 µM
[18] = second compound 0.0316 µM, first compound 10 µM
[19] = second compound 0.1 µM, first compound 0.0316 µM
[20] = second compound 0.1 µM, first compound 0.1 µM
[21] = second compound 0.1 µM, first compound 0.316 µM
[22] = second compound 0.1 µM, first compound 1 µM
[23] = second compound 0.1 µM, first compound 3.16 µM
[24] = second compound 0.1 µM, first compound 10 µM
[25] = second compound 0.316 µM, first compound 0.0316 µM
[26] = second compound 0.316 µM, first compound 0.1 µM
[27] = second compound 0.316 µM, first compound 0.316 µM
[28] = second compound 0.316 µM, first compound 1 µM
[29] = second compound 0.316 µM, first compound 3.16 µM
[30] = second compound 0.316 µM, first compound 10 µM
[31] = second compound 1 µM, first compound 0.0316 µM
[32] = second compound 1 µM, first compound 0.1 µM
[33] = second compound 1 µM, first compound 0.316 µM
[34] = second compound 1 µM, first compound 1 µM
[35] = second compound 1 µM, first compound 3.16 µM
[36] = second compound 1 µM, first compound 10 µM

CC1(O)CCCC1n1c(=O)c(C(F)F)cc2cnc(NC3CCN(S(C)(=O)=O)CC3)nc21 (stereo not given) + C=CC(=O)N1CCN(c2nc(OCC3CCCN3C)nc3c(F)c(-c4nc(N)cc(C)c4C(F)(F)F)c(Cl)cc23)C(C)C1
active: viability, T/C [24] 4.58%
< 31.6 nM: IC50 (second compound 0.00316 µM) | IC50 (second compound 0.01 µM) | IC50 (second compound 0.0316 µM) | IC50 (second compound 0.1 µM) | IC50 (second compound 0.316 µM) | IC50 (second compound 1 µM)
inactive: viability, T/C [1] 46.8% | viability, T/C [2] 41.8% | viability, T/C [3] 30.8% | viability, T/C [4] 29.7% | viability, T/C [5] 28.1% | viability, T/C [6] 6.28% | viability, T/C [7] 44.6% | viability, T/C [8] 32.1% | viability, T/C [9] 24.9% | viability, T/C [10] 27.3% | viability, T/C [11] 25.9% | viability, T/C [12] 4.38% | viability, T/C [13] 36.1% | viability, T/C [14] 26.5% | viability, T/C [15] 23.1% | viability, T/C [16] 25.3% | viability, T/C [17] 26.5% | viability, T/C [18] 3.8% | viability, T/C [19] 34.6% | viability, T/C [20] 28.7% | viability, T/C [21] 22.1% | viability, T/C [22] 22.6% | viability, T/C [23] 23.6% | viability, T/C [25] 31.2% | viability, T/C [26] 23.1% | viability, T/C [27] 22.4% | viability, T/C [28] 20.3% | viability, T/C [29] 27.6% | viability, T/C [30] 3.96% | viability, T/C [31] 27.1% | viability, T/C [32] 25.9% | viability, T/C [33] 21% | viability, T/C [34] 22% | viability, T/C [35] 23.5% | viability, T/C [36] 2.26%

CCC(CC)c1cc(NC2CCC(N)C2)n2nccc2n1 (stereo not given) + C=CC(=O)N1CCN(c2nc(OCC3CCCN3C)nc3c(F)c(-c4nc(N)cc(C)c4C(F)(F)F)c(Cl)cc23)C(C)C1
< 31.6 nM: IC50 (second compound 0.0316 µM) | IC50 (second compound 0.1 µM) | IC50 (second compound 0.316 µM) | IC50 (second compound 1 µM)
inactive: viability, T/C [1] 64.8% | viability, T/C [2] 75.2% | viability, T/C [3] 57.1% | viability, T/C [4] 51.4% | viability, T/C [7] 52.7% | viability, T/C [8] 62.7% | viability, T/C [9] 55.2% | viability, T/C [10] 43.2% | viability, T/C [13] 44.7% | viability, T/C [14] 47.1% | viability, T/C [15] 42.9% | viability, T/C [16] 36.5% | viability, T/C [19] 39.3% | viability, T/C [20] 50.3% | viability, T/C [21] 38.7% | viability, T/C [22] 36.5% | viability, T/C [25] 36.2% | viability, T/C [26] 37.8% | viability, T/C [27] 39.9% | viability, T/C [28] 36.7% | viability, T/C [29] 4.1% | viability, T/C [31] 34.6% | viability, T/C [32] 42.8% | viability, T/C [33] 41.1% | viability, T/C [34] 38.5% | viability, T/C [35] 4.68%
1010 nM: IC50 (second compound 0.00316 µM)
active: viability, T/C [5] 5.05% | viability, T/C [6] 0.45% | viability, T/C [11] 4.13% | viability, T/C [12] 0.6% | viability, T/C [17] 3.39% | viability, T/C [18] 0.5% | viability, T/C [23] 2.7% | viability, T/C [24] 0.48% | viability, T/C [30] 0.41% | viability, T/C [36] 0.53%
557 nM: IC50 (second compound 0.01 µM)

CCN1CCN(Cc2ccc(Nc3ncc(F)c(-c4cc(F)c5nc(C)n(C(C)C)c5c4)n3)nc2)CC1 + C=CC(=O)N1CCN(c2nc(OCC3CCCN3C)nc3c(F)c(-c4nc(N)cc(C)c4C(F)(F)F)c(Cl)cc23)C(C)C1
15.3 nM: IC50 (second compound 0.00316 µM)
< 3.16 nM: IC50 (second compound 0.0316 µM) | IC50 (second compound 0.1 µM) | IC50 (second compound 0.316 µM) | IC50 (second compound 1 µM)
3.55 nM: IC50 (second compound 0.01 µM)
inactive: viability, T/C (second compound 0.00316 µM, first compound 0.00316 µM) 55.6% | viability, T/C (second compound 0.00316 µM, first compound 0.01 µM) 58.2% | viability, T/C [1] 38.2% | viability, T/C [2] 26.9% | viability, T/C [3] 26.1% | viability, T/C [4] 23.9% | viability, T/C (second compound 0.01 µM, first compound 0.00316 µM) 49.9% | viability, T/C (second compound 0.01 µM, first compound 0.01 µM) 46.7% | viability, T/C [7] 30.1% | viability, T/C [8] 23.6% | viability, T/C [9] 17.4% | viability, T/C [10] 18.6% | viability, T/C (second compound 0.0316 µM, first compound 0.00316 µM) 44.4% | viability, T/C (second compound 0.0316 µM, first compound 0.01 µM) 37.3% | viability, T/C [13] 24.1% | viability, T/C [14] 21.8% | viability, T/C [15] 17.2% | viability, T/C [16] 20.1% | viability, T/C (second compound 0.1 µM, first compound 0.00316 µM) 36.4% | viability, T/C (second compound 0.1 µM, first compound 0.01 µM) 29.3% | viability, T/C [19] 23.2% | viability, T/C [20] 19.4% | viability, T/C [21] 19.4% | viability, T/C [22] 18.3% | viability, T/C (second compound 0.316 µM, first compound 0.00316 µM) 34.3% | viability, T/C (second compound 0.316 µM, first compound 0.01 µM) 31.7% | viability, T/C [25] 21.9% | viability, T/C [26] 20.5% | viability, T/C [27] 16.6% | viability, T/C [28] 17.2% | viability, T/C (second compound 1 µM, first compound 0.00316 µM) 28.7% | viability, T/C (second compound 1 µM, first compound 0.01 µM) 33.8% | viability, T/C [31] 26.2% | viability, T/C [32] 20.1% | viability, T/C [33] 17.8% | viability, T/C [34] 17.1%

Cc1nc(N2CCC3(CC2)COC(C)C3N)c(CO)nc1Sc1ccnc(N)c1Cl (stereo not given) + C=CC(=O)N1CCN(c2nc(OCC3CCCN3C)nc3c(F)c(-c4nc(N)cc(C)c4C(F)(F)F)c(Cl)cc23)C(C)C1
< 31.6 nM: IC50 (second compound 0.00316 µM) | IC50 (second compound 0.01 µM) | IC50 (second compound 0.0316 µM) | IC50 (second compound 0.1 µM) | IC50 (second compound 0.316 µM) | IC50 (second compound 1 µM)
inactive: viability, T/C [1] 47.4% | viability, T/C [2] 48.5% | viability, T/C [3] 32% | viability, T/C [4] 27% | viability, T/C [5] 31.7% | viability, T/C [6] 25.4% | viability, T/C [7] 44.3% | viability, T/C [8] 42.3% | viability, T/C [9] 26.7% | viability, T/C [10] 28.5% | viability, T/C [11] 22.6% | viability, T/C [12] 16.4% | viability, T/C [13] 36% | viability, T/C [14] 33.6% | viability, T/C [15] 24.7% | viability, T/C [16] 26.7% | viability, T/C [17] 21.1% | viability, T/C [18] 20% | viability, T/C [19] 37.2% | viability, T/C [20] 35.5% | viability, T/C [21] 25.8% | viability, T/C [22] 23.9% | viability, T/C [23] 19.7% | viability, T/C [24] 17.2% | viability, T/C [25] 31.1% | viability, T/C [26] 31.6% | viability, T/C [27] 30.2% | viability, T/C [28] 23.2% | viability, T/C [29] 23.3% | viability, T/C [30] 17.5% | viability, T/C [31] 36.6% | viability, T/C [32] 32.8% | viability, T/C [33] 26.6% | viability, T/C [34] 18.6% | viability, T/C [35] 22.7% | viability, T/C [36] 17.9%

NC1c2ccccc2OC12CCN(c1cnc3c(N4CCCc5ncccc54)n[nH]c3n1)CC2 (stereo not given) + C=CC(=O)N1CCN(c2nc(OCC3CCCN3C)nc3c(F)c(-c4nc(N)cc(C)c4C(F)(F)F)c(Cl)cc23)C(C)C1
inactive: viability, T/C [1] 36.1% | viability, T/C [2] 31.4% | viability, T/C [3] 23.7% | viability, T/C [4] 20.7% | viability, T/C [5] 17.5% | viability, T/C [6] 12.2% | viability, T/C [7] 32.9% | viability, T/C [8] 29.2% | viability, T/C [9] 18.9% | viability, T/C [10] 16.9% | viability, T/C [11] 11.4% | viability, T/C [13] 27.9% | viability, T/C [14] 25% | viability, T/C [15] 18.2% | viability, T/C [16] 13.6% | viability, T/C [17] 11.8% | viability, T/C [19] 25% | viability, T/C [20] 21.6% | viability, T/C [21] 17.8% | viability, T/C [22] 14.8% | viability, T/C [23] 11.8% | viability, T/C [25] 23.1% | viability, T/C [26] 23.4% | viability, T/C [27] 19.4% | viability, T/C [28] 14.8% | viability, T/C [29] 12.2% | viability, T/C [30] 11.7% | viability, T/C [31] 26.8% | viability, T/C [32] 24.6% | viability, T/C [33] 20.1% | viability, T/C [34] 13.1% | viability, T/C [35] 12.8% | viability, T/C [36] 11.2%
active: viability, T/C [12] 10.4% | viability, T/C [18] 10.1% | viability, T/C [24] 8.71%
< 31.6 nM: IC50 (second compound 0.00316 µM) | IC50 (second compound 0.01 µM) | IC50 (second compound 0.0316 µM) | IC50 (second compound 0.1 µM) | IC50 (second compound 0.316 µM) | IC50 (second compound 1 µM)
